Assays:
LNCaP cells = assay: Flow cytometry of annexin V-PE positive / 7-AAD negative cells (apoptotic cells); assay type: cell-based, human
Method: (§1) In a further approach, 10 μM 1-O-octadecyl-2-O-methyl-glycero-3-phosphocholine (final concentration; “CHEM”) and (ionizing) radiation (5 Gray units; “RT”) were administered simultaneously to the LNCaP cells but the subsequent incubation period was extended to 24 hours. Apoptosis was measured using the Apo-ONE™ Homogenous Caspase-3/7 Assay as described above and expressed as relative fluorescence units (RFLU). The percentage of apoptotic cells was determined by flow cytometric analysis of annexin V-PE positive-stained and 7-AAD (7-Amino ActinomycinD) negative-stained cells (both purchased from BD Biosciences, San Jose, Calif., USA) according to established standard protocols. The data represent means±SEM from three independent experiments.
(§2) Next, the interaction of 1-O-octadecyl-2-O-methyl-glycero-3-phosphocholine administration (“CHEM”) and androgen deprivation (“AD”) was investigated. LNCaP cells were deprived of androgen for two days by charcoal absorption of serum according to established procedures well known in the art. CHEM was added in a final concentration of 5 μM and 10 μM, respectively.
(§3) Apoptosis was measured using the Apo-ONE™ Homogenous Caspase-3/7 Assay as described above and expressed as relative fluorescence units (RFLU). The percentage of apoptotic cells was determined via annexin V-PE/7-AAD staining as described above. The caspase-3/7 assay and annexin staining were performed 22 hours after CHEM treatment.

[1] = test system: LNCaP androgen-sensitive human prostate adenocarcinoma cells; assay: Apo-ONE Homogenous Caspase-3/7 Assay (apoptosis); assay type: cell-based
Method: (§4) FIG. 3. Depicts the in vitro effects of 1-O-octadecyl-2-O-methyl-glycero-3-phosphocholine (final concentration 10 μM), (ionizing) radiation (absorbed dose of 5 Gray units; indicated as “RT”), and a combination thereof on programmed cell death (apoptosis) and the survival rate of LNCaP androgen-sensitive human prostate adenocarcinoma cells. Apoptosis was determined using the Apo-ONE™ Homogenous Caspase-3/7 Assay, Promega, Inc., Madison, Wis., USA according to the manufacturer's instructions. The percentage of living cancer cells was estimated by means of trypan blue dye exclusion as described (Freshney, R. I. (1994) Culture of Animal Cells: A Manual of Basic Technique. 3rd Ed. Wiley-Liss. New York. USA). The cells were exposed to radiation six hours after (FIG. 3A), concomitantly with (FIG. 3B), or six hours before administration of 1-O-octadecyl-2-O-methyl-glycero-3-phospho-choline (FIG. 3C). The caspase assay was performed 12 hours after exposure to radiation. The respective data shown represent the average of two independent experiments.
(§5) First, the in vitro effects of 1-O-octadecyl-2-O-methyl-glycero-3-phosphocholine, (ionizing) radiation, and a combination thereof on programmed cell death (apoptosis) and the survival rate of LNCaP androgen-sensitive human prostate adenocarcinoma cells were measured. The LNCaP cell line was established from a metastatic lesion of the adenocarcinoma. The cells were treated with a final concentration of 10 μM 1-O-octadecyl-2-O-methyl-glycero-3-phosphocholine and (ionizing) radiation corresponding to an absorbed dose of 5 Gray units.
(§6) Apoptosis was determined using the Apo-ONE™ Homogenous Caspase-3/7 Assay, Promega, Inc., Madison, Wis., USA according to the manufacturer's instructions. The percentage of living tumor cells was estimated by means of trypan blue dye exclusion as described (Freshney, R. I. (1994) Culture of Animal Cells: A Manual of Basic Technique. 3rd Ed. Wiley-Liss. New York. USA)
(§7) The cells were exposed to radiation six hours after (FIG. 3A), concomitantly with (FIG. 3B), or six hours before administration of 1-O-octadecyl-2-O-methyl-glycero-3-phospho-choline (FIG. 3C). The caspase assay was performed 12 hours after exposure to radiation. The respective data shown represent the average of two independent experiments.
as §1, §2, §3

[2] = test system: LNCaP androgen-sensitive human prostate adenocarcinoma cells; assay: Trypan blue dye exclusion, percentage of living tumor cells; assay type: cell-based; conditions: for survival rate: untreated controls about 86%
Method: as §4, §5, §6, §7

LNCaP C4-2 cells = assay: Apoptosis after CHEM+RT in androgen-insensitive cells; assay type: cell-based; conditions: data not shown
[3] = test system: LNCaP cells grown orthotopically in the prostates of nude mice; assay: Orthotopic LNCaP prostate tumor model, serum PSA and tumor volume (MRI); assay type: in vivo; conditions: 30 mg/kg body weight/day intraperitoneally for 15 days + radiation 5 Gray on day 7; preliminary study
Method: FIG. 4. Depicts the in vivo effects of 1-O-octadecyl-2-O-methyl-glycero-3-phosphocholine (30 mg/kg body weight/day administered intraperitoneally for 15 days: FIG. 4A), (ionizing) radiation (absorbed dose of 5 Gray units administered on day 7; FIG. 4C), and a combination thereof (FIG. 4B) on LNCaP cells grown orthotopically in the prostates of nude mice (seven mice/group). Tumor growth was assessed via determining the serum level of the prostate-specific antigen (PSA) using a commercially available test kit as well as the tumor volume by means of magnetic resonance imaging.
Additionally, in a preliminary study the in vivo effects of 1-O-octadecyl-2-O-methyl-glycero-3-phosphocholine (ionizing) radiation, and a combination thereof on LNCaP cells grown orthotopically in the prostates of nude mice (seven mice/group) was investigated.
1-O-octadecyl-2-O-methyl-glycero-3-phosphocholine was administered intraperitoneally in a dose of 30 mg/kg body weight/day administered intraperitoneally for 15 days (FIG. 4A; studies using different routes of administration such as orally or by gavage are currently under way). […] Tumor growth was assessed via determining the serum level of the prostate-specific antigen (PSA) using a commercially available test kit as well as the tumor volume by means of magnetic resonance imaging.

LNCaP-Res cells = assay: Apoptosis after CHEM+RT in androgen-insensitive cells; assay type: cell-based; conditions: data not shown
[4] = Differential scanning calorimetry, excipient compatibility; assay type: physicochemical; conditions: crystalline compound, heating 5 K/min up to 300° C., cooling 1 K/min down to −30° C.
Method: FIG. 1. Depicts the results of differential scanning calorimetry (DCS) analyses for determining excipient compatibility using a Netzsch DSC 204 apparatus (Netzsch Gerätebau GmbH, Selb, Germany) with a heating rate of 5 K/min up to 300° C. and a cooling rate of 1 K/min down to −30° C. (temperature onset at room temperature (approx. 20° C.)). The below-mentioned samples were tested: crystalline 1-O-octadecyl-2-O-methyl-glycero-3-phosphocholine alone (black curves), the following excipients alone (red curves): lactose (FIG. 1A), crospovidone (FIG. 1B), starch 1500 (FIG. 1C), siliciumdioxide (FIG. 1D), as well as magnesium stearate (FIG. 1E), and binary mixtures of 1-O-octadecyl-2-O-methyl-glycero-3-phosphocholine and each excipient (green curves).
Differential scanning calorimetry (DCS) analyses were performed for determining the compatibility of different excipients for formulating tablets according to the present invention.
DSC is a thermoanalytical technique in which the difference in the amount of heat required to increase the temperature of a sample and reference is measured as a function of temperature. Both the sample and reference are maintained at nearly the same temperature throughout the experiment. Generally, the temperature program for a DSC analysis is designed such that the temperature increases or decreases linearly as a function of time. […]

[5] = 10 μM CHEM + RT (5 Gray) simultaneously, 24 hours incubation, means±SEM, p<0.0001 vs CHEM and RT
[6] = AD + R1881 (two days prior to CHEM) + 5 μM CHEM, 22 hours
[7] = AD + R1881 (two days prior to CHEM) + 10 μM CHEM, 22 hours

C[C@]1(O)CC[C@H]2[C@@H]3CCC4=CC(=O)CCC4=C3C=C[C@@]21C [R1881]
% Annexin V-PE pos. cells (LNCaP cells; AD + R1881, no CHEM, AD alone 12.6): 7.0% | Caspase-3/7 activity (RFLU) ([1]; AD + R1881, no CHEM, AD alone 81): 130 RFLU

CCCCCCCCCCCCCCCCCCOCC(COP(=O)([O-])OCC[N+](C)(C)C)OC (stereo not drawn) [1-O-octadecyl-2-O-methyl-glycero-3-phosphocholine]
survival rate of tumor cells ([2]; 10 μM compound alone, FIG. 3A experiment, untreated controls about 85%): about 60% | survival rate ([2]; 10 μM compound alone, FIG. 3B experiment): about 50% | survival of cells ([2]; 10 μM compound alone, FIG. 3C experiment): about 45% | survival rate ([2]; 10 μM compound concomitantly with radiation (5 Gray), FIG. 3B): about 55% | survival of cells ([2]; 10 μM compound six hours after radiation (5 Gray), combined treatment, FIG. 3C): about 40% | survival of tumor cells ([2]; 10 μM compound six hours prior to radiation (5 Gray), combined treatment, FIG. 3A, untreated controls about 85%): about 45% | apoptosis in CHEM+RT treated cells (LNCaP C4-2 cells): enhancement of apoptosis | % Annexin V-PE pos. cells (LNCaP cells; [5]): 31.7 ± 1.0 % | % Annexin V-PE pos. cells (LNCaP cells; 10 μM CHEM alone, 24 hours incubation, means±SEM, three experiments, control 3.6 ± 0.2): 18.6 ± 1.0% | % Annexin V-PE pos. cells (LNCaP cells; [6]): 14.6% | % Annexin V-PE pos. cells (LNCaP cells; [7]): 21.6% | % Annexin V-PE pos. cells (LNCaP cells; Contr. cells + 5 μM CHEM, 22 hours after treatment, Contr. 9.8): 13.0% | % Annexin V-PE pos. cells (LNCaP cells; Contr. cells + 10 μM CHEM, 22 hours after treatment, Contr. 9.8): 17.5% | % Annexin V-PE pos. cells (LNCaP cells; androgen deprivation (AD) two days + 5 μM CHEM, 22 hours, AD alone 12.6): 15.4% | % Annexin V-PE pos. cells (LNCaP cells; androgen deprivation (AD) two days + 10 μM CHEM, 22 hours, AD alone 12.6): 27.4% | apoptotic response in androgen-deprived LNCaP cells (LNCaP cells; androgen-deprived cells, 5 μM and 10 μM): dose-dependent significant increase | reversal of the apoptotic effect by synthetic androgen added prior to treatment (LNCaP cells; androgen-deprived cells, R1881 added two days prior): not reversed | PSA serum levels, combined treatment compared to either individual treatment [3]: significant decrease | Caspase-3/7 activity (RFLU) [1, 5]: 1514 ± 102 RFLU | Caspase-3/7 activity (RFLU) ([1]; 10 μM CHEM alone, 24 hours incubation, means±SEM, three experiments, control 193 ± 39): 580 ± 207 RFLU | extent of apoptosis, increase in cells only exposed to the chemical as compared to combined treatment ([1]; 10 μM compound six hours after radiation (5 Gray), FIG. 3C): about 25% | increase in apoptotic response (caspase-3/7 assay) ([1]; 10 μM compound six hours prior to radiation (5 Gray), combined treatment, assay 12 hours after radiation, FIG. 3A): > 2.5 fold | Caspase-3/7 activity (RFLU) [1, 6]: 453 RFLU | Caspase-3/7 activity (RFLU) [1, 7]: 962 RFLU | Caspase-3/7 activity (RFLU) ([1]; Contr. cells + 5 μM CHEM, 22 hours after treatment, Contr. 235): 380 RFLU | Caspase-3/7 activity (RFLU) ([1]; Contr. cells + 10 μM CHEM, 22 hours after treatment, Contr. 235): 436 RFLU | Caspase-3/7 activity (RFLU) ([1]; androgen deprivation (AD) two days + 5 μM CHEM, 22 hours, AD alone 81): 126 RFLU | Caspase-3/7 activity (RFLU) ([1]; androgen deprivation (AD) two days + 10 μM CHEM, 22 hours, AD alone 81): 115 RFLU | apoptosis in CHEM+RT treated cells (LNCaP-Res cells): enhancement of apoptosis

magnesium stearate
interaction of excipient with 1-O-octadecyl-2-O-methyl-glycero-3-phosphocholine (DSC thermogram of binary mixture) [4]: dominate the thermogram

OC[C@H]1O[C@@H](O[C@H]2[C@H](O)[C@@H](O)C(O)O[C@@H]2CO)[C@H](O)[C@@H](O)[C@H]1O (stereo partly drawn) [lactose]
interaction of excipient with 1-O-octadecyl-2-O-methyl-glycero-3-phosphocholine (DSC thermogram of binary mixture) [4]: show such interactions
